# Earlier results, collected in patent US20240277627A1, “NOVEL FLUOROCHEMICAL CARDIAC RESUSCITATION” (NUVOX PHARMA LLC, priority 2023, published 2024).
smiles,measurement,setting,value
"FC(F)(F)C(F)(F)C(F)(F)C(F)(F)C(F)(F)F [DDFP, n-dodecafluoropentane]",metabolism / route of clearance,clears from the body via exhalation,not metabolized
same,terminal half-life,humans,about 90 minutes
